{"source": "patent US20080194631A1", "about": "“Medicament For the Treatment of Central Nervous System Disorders” (priority 2004, published 2008)", "key": {"[1]": {"test_system": "hyperactivity induced by MK801", "assay": "Model of locomotor hyperactivity induced by MK801", "format": "in vivo", "conditions": "clozapine 1 mg/kg", "method": "Given the pharmacological profile of the molecules chosen toward the noradrenergic and serotoninergic receptors, an antipsychotic activity was sought. The substances were tested in the model of locomotor hyperactivity induced by MK801. […] In this model and under our experimental conditions, clozapine (1 mg/kg) reduces by 56% the hyperactivity induced by MK 801.\nEffect of the combination 1 mg/kg ifenprodil+1 mg/kg cyproheptadine on the locomotor activity induced by MK801 (cm covered, mean +SEM)."}, "alcohol withdrawal": {"test_system": "alcohol withdrawal", "conditions": "in vivo; cited from earlier work"}, "C57/BL6J male mice": {"test_system": "C57/BL6J male mice", "assay": "Motor and exploratory activity test in open-field (effects of the products on the locomotor activity)", "format": "in vivo", "conditions": "ifenprodil alone, doses of less than 10 mg/kg", "experimental": "(§1) The principle of the behavioral sensitization test is based on the measurement of the locomotor activity. The latter is measured in the open-field test.\nMotor and Exploratory Activity Test in Open-Field\n(§2) The animals used are 9-week old C57/BL6J male mice at the beginning of the experiment.\n(§3) The open-fields used to measure the activity are 4 square chambers made of transparent plexiglas. Each open-field is arranged in a setting equipped with photoelectric cells which make it possible to record the movements of the animal.\nThe products used have known psychotropic properties. […] Since the principle of the study is based on the measurement of the locomotor activity, it is preferable to have a preliminary evaluation of these effects under the experimental conditions used.\nAll the products are dissolved in physiological saline (0.9% NaCl) so that the volume for injection is 10 ml/kg of body weight.\nIFENPRODIL was tested at the following doses: 1 mg/kg; 3 mg/kg and 10 mg/kg.\nThe experiments were also performed in order to evaluate the effect of the combination of the products:"}, "[2]": {"conditions": "in vivo; cited from earlier work"}, "[3]": {"test_system": "stimulant effects of alcohol", "conditions": "in vivo; cited from earlier work"}, "[4]": {"test_system": "sensitization induced by amphetamine", "assay": "Behavioral sensitization protocol (amphetamine), locomotor activity in open-field", "format": "in vivo, mice", "conditions": "repeated sessions, amphetamine 2 mg/kg", "experimental": "as §1, §2, §3\nGroups receive beforehand an administration of one of the products or the combination of both.\nDuring the 1st session, the animals receive NaCl at the 1st and 2nd injection. The experiment is performed over several sessions, 2 to 10 days apart.\nThe experiments were performed on 5 groups of animals which received the following treatments at each session."}}}
{"smiles": "CN1CCN(C2=Nc3cc(Cl)ccc3Nc3ccccc32)CC1", "note": "[clozapine]", "values": [{"measurement": "reduction of the hyperactivity induced by MK 801", "setting": "[1]", "value": 56, "unit": "%"}]}
{"smiles": "CC(C(O)c1ccc(O)cc1)N1CCC(Cc2ccccc2)CC1", "note": "(stereo not shown) [Ifenprodil]", "values": [{"measurement": "effect on the physical signs induced by alcohol withdrawal", "setting": "alcohol withdrawal", "value": "reduces"}, {"measurement": "effect on locomotion", "setting": "C57/BL6J male mice", "value": "does not have a significant effect"}, {"measurement": "anxiolytic effects", "setting": "[2]", "value": "anxiolytic effects"}, {"measurement": "effect on the expression of sensitization (alcohol)", "setting": "[3]", "value": "does not block"}, {"measurement": "effect on the stimulant effects of alcohol", "setting": "[3]", "value": "reduces"}, {"measurement": "effect on the development (and expression) of behavioral sensitization to amphetamine", "setting": "[4]", "value": "limited effects"}]}
